These results are taken from patent US20250049953A1, “TREATMENT AND METHOD FOR INHIBITING LATE NA CURRENT” (THE TRUSTEES OF COLUMBIA UNIVERSITY IN THE CITY OF NEW YORK, priority 2022, published 2025).

No end group written: not given here.

The target of data set [1] is T1, NaV1.5 IQ/AA mutant (Homo sapiens, UniProt Q14524, I1908A/Q1909A).
T1 construct: expressed in transfected cells; host or cells: HEK293 (ATCC CRL1573)
Kind of data set: Multichannel recordings of late Na current, NaV1.5 IQ/AA mutant in HEK293 cells. Particulars: for change in INa,L: co-expression with NaV1.5 IQ/AA in HEK293 cells. The format is cell-based. The source says:
The human NaV1.5 channel corresponds to clone M77235.1 (GenBank) and is subcloned into pGW 1 vector with HindIII and SaII. To facilitate construction of channelopathic mutations in the channel carboxy-terminus, we introduced silent mutations into NaV1.5 to introduce an NruI cutting site near the channel carboxy-terminus (5329-gtggccacg-5337 into 5329-gtCgcGacg-5337). Subsequently, we used overlap-extension PCR and ligated the PCR product into NaV1.5/pGW1 using NruI and XbaI restriction sites (mutations: E1784K, S1904L, IQ/AA, and Q1909R). For generating the ΔKPQ and IFM/IQM mutations, we used overlap-extension PCR and ligated in NaV1.5/pGW1 following restriction digest using KpnI and XbaI site. For generation of NaV1.5 truncations, we PCR amplified relevant segments using a forward primer upstream of the KpnI site and a reverse primer that truncated at the appropriate location (Δ1810 and Δ1885) and included an XbaI site and ligated into NaV1.5/pW1 vector. For LILA/WICW mutations, we used overlap extension and used restriction site AgeI and NheI for subsequent ligation. All segments subjected to PCR amplification were verified by sequencing. For generating human FHF2 splice-variants, we synthesized gene fragments and ligated into pcDNA3 using BamHI/EcoRI restriction sites. Human FHF1A and FHF1B were subcloned into ECFP-N3 vector, FHF2 splice variants and FHF3 were subcloned into pcDNA3. Truncations of the FHF1A amino-terminus (NT) were generated as fusion proteins with Venus fluorescent protein in the carboxy-terminus by encoding the relevant segments as noted in FIG. 12A in the forward PCR primer and the fluorophore as the template. Following PCR amplification, each fragment was ligated into pcDNA3 following restriction digest using NheI and XhoI enzymes. Plasmid encoding PKA catalytic subunit was constructed from pDONR222-PRKACA as described previously.
HEK293 cells (ATCC CRL1573) were cultured on glass coverslips in 60-mm dishes and transfected using the Ca^2+-phosphate method as previously described. For electrophysiology experiments, we co-transfected 4-8 μg of cDNA encoding the desired channel variant with 4 μg of YFP, and 1 μg of simian virus 40 T-antigen. For experiments evaluating effect of FHF, we transfected the relevant FHF variant at 1:1 ratio as the α-subunit. For experiments considering competition between FHF1/2 isoforms, we co-transfected FHF1B and FHF2S variants at specified ratios (ranging from 1:1 to 1:10). The culture media was replaced following 4 h of transfection. Electrophysiology recordings were then performed at room temperature 1-2 days following transfection.
Multichannel records were obtained in the on-cell configuration with either HEK293 cells or in aMVM as in our previous study. The pipette contained (in mM): 140 NaCl; 10 HEPES; 0.5 CaCl2; at 300 mOsm, adjusted with tetraethylammonium methanesulfonate; and pH 7.4 adjusted with tetraethylammonium hydroxide. To zero membrane potential, the bath contained (in mM): 132 K^+-glutamate; 5 KCl; 5 NaCl; 3 MgCl; 2 EGTA; 10 glucose; 20HEPES; at 300 mOsm adjusted with glucose; and pH 7.4 adjusted with NaOH. Data were acquired at room temperature using the integrating mode of an Axopatch 200A amplifier (Axon Instruments, Molecular Devices). Patch pipettes (3-10 MΩ) were pulled from ultra-thick-walled borosilicate glass (BF200-116-10; Sutter Instruments) using horizontal puller (P-97, Sutter Instruments), fire polished with a microforge (Narishige), and coated with Sylgard™ brand silicone elastomer (Dow Corning). Elementary currents were low-pass filtered at 2 kHz with a four-pole Bessel filter and digitized at 200 kHz with an ITC-18 unit (Instrutech), controlled by custom MATLAB software (Mathworks). For each pulse, we obtained P/8 leak pulses. Leak subtraction was performed using an automated algorithm which fit the kinetics of the leak current or the capacitive transient with convex optimization with L1 regularization. […]

Data set [2] concerns ischemia induced arrhythmias. Particulars: rats; cited from earlier work.
The subject of data set [3] is late Na current. Particulars: cited from earlier work.
The test system of data set [4] is aMVM from non-transgenic mice. Kind of data set: Multichannel recordings of INa,L in cultured aMVM from non-transgenic mice. The format is cell-based, mouse. Particulars: 5 μM Forskolin following shRNA-mediated silencing of FHF2. The source says: As such, we sought to determine whether “protective” FHF variants may inhibit phosphorylation-dependent INa,L. To maximally upregulate INa,L, we co-expressed wild-type NaV1.5 with either (1) the catalytic Cα subunit of protein kinase A (PKA) or (2) a constitutively-active Ca^2+/CaM dependent kinase II (CaMKIIT286D) mutant in HEK293 cells. This maneuver likely triggers runaway phosphorylation of NaV1.5 and thereby furnishes a baseline to discern any potential FHF-dependent change. As expected, we observed an ˜5 fold increase in INa,L in the presence of the PKA Cα subunit (FIGS. 3D and 3E), and a 3-fold increase with CaMKIIT286D (FIGS. 3E and 11B). […] Encouraged by these findings, we dissected the functional role of this modulation in native cardiomyocytes (FIGS. 3F and 3G).
Multichannel records were obtained in the on-cell configuration with either HEK293 cells or in aMVM as in our previous study. The pipette contained (in mM): 140 NaCl; 10 HEPES; 0.5 CaCl2; at 300 mOsm, adjusted with tetraethylammonium methanesulfonate; and pH 7.4 adjusted with tetraethylammonium hydroxide. […]
Mice ventricular myocytes were isolated by enzymatic digestion using a Langendorff perfusion apparatus as previously described. […] The efficacy of viral transduction was assessed 24-48 hours post infection.

The conditions of data set [5]: in vivo; cited from earlier work.
The subject of data set [6] is neuronal Na channels. Particulars: cited from earlier work.
For data set [7] the following is noted: acute animal toxicity tests; cited from earlier work.
Data set [8] concerns the target T2, NaV1.5 S1904L mutant channel (Homo sapiens, UniProt Q14524, S1904L).
T2 construct: expressed in transfected cells; host or cells: HEK293 (ATCC CRL1573)
Kind of data set: Multichannel recordings of late Na current, NaV1.5 S1904L. The format is cell-based.
Method: HEK293 cells (ATCC CRL1573) were cultured on glass coverslips in 60-mm dishes and transfected using the Ca^2+-phosphate method as previously described. For electrophysiology experiments, we co-transfected 4-8 μg of cDNA encoding the desired channel variant with 4 μg of YFP, and 1 μg of simian virus 40 T-antigen. […] The culture media was replaced following 4 h of transfection. Electrophysiology recordings were then performed at room temperature 1-2 days following transfection.

The subject of data set [9] is Ca^2+ channels and K^+ channels. Particulars: cited from earlier work.
Data set [10] deals with NaV1.5 IFM/IQM mutant (human) (UniProt Q14524). The data set is described as follows: cell-based or functional assay.
Data set [11] has as its target NaV1.5 LILA/WICW mutant (human) (UniProt Q14524). The data set is described as follows: cell-based or functional assay.
In data set [12] the target is NaV1.5 IQ/AA mutant (human) (UniProt Q14524). Kind of data set: cell-based or functional assay.
The mark [13] stands for this setting: incubation with 10 μM ranolazine.

For the molecule “1-18: FHF1A amino-terminal truncation peptide, residues 1-18, Venus fusion (MAAAIASSLIRQKRQARE; also: Venus fusion, end not given here; UniProt P61328 1-18, looked up, fragment)”, the “change in INa,L” value in [1] is listed as “increase late channel openings”.
Regarding “9-32: FHF1A amino-terminal truncation peptide, residues 9-32, Venus fusion (LIRQKRQARESNSDRVSASKRRSS; also: Venus fusion, end not given here; UniProt P61328 9-32, looked up, fragment)”, the “change in INa,L” value in data set [1] is “increase late channel openings”.
In the case of “12-17: FHF1A amino-terminal truncation peptide, residues 12-17, Venus fusion (QKRQAR; also: Venus fusion, end not given here; UniProt P61328 12-17, looked up, fragment)”, the “change in INa,L” value in [1] was “increase late channel openings”.
Still for that read-out and setting: then “18-39: FHF1A amino-terminal truncation peptide, residues 18-39, Venus fusion (ESNSDRVSASKRRSSPSKDGRS; also: Venus fusion, end not given here; UniProt P61328 18-39, looked up, fragment)”, with “increase late channel openings”.
In the case of `COc1ccccc1SC[C@@H](C)CN[C@@H]1COc2ccccc2SC1` [F15845], in data set [2], the “effect on ischemia induced arrhythmias” value is recorded as “prevented ischemia induced arrhythmias”. The “potency/efficacy for blocking late Na current” value (“potency/efficacy” for short) in data set [3] is on record as “very high efficacy”.
Take `C=C[C@@]1(C)CC(=O)[C@]2(O)[C@@]3(C)[C@@H](O)CCC(C)(C)[C@@H]3[C@H](O)[C@H](OC(C)=O)[C@@]2(C)O1` [Forskolin]: in data set [4], the “increase in INa,L” value is on record as 20 fold.
Take `FC(F)(F)Oc1ccc(-c2ccc3nnc(C(F)(F)F)n3c2)cc1` [GS-458967]: the brain penetration result in [5] is “high brain penetration”. In data set [3], the “potency/efficacy” value is recorded as “high efficacy”. In [6], the “block of neuronal Na channels” value is given as “use-dependent block”.
In the case of `Cc1noc(Cn2nc3ccc(-c4ccc(OC(F)(F)F)cc4)cn3c2=O)n1` [GS-462808], the liver findings entry in data set [7] is “caused liver lesions”.
On to `COc1ccccc1OCC(O)CN1CCN(CC(=O)Nc2c(C)cccc2C)CC1` (stereo not drawn) [ranolazine], for which the “reduction in INa,L” value in [8] (setting [13]) and in [1] (setting [13]) was 3 fold throughout. Moreover, the “inhibition of INa,L” value in data set [8] (ranolazine, FIG. 13I) is recorded as “inhibits INa,L”; in data set [1] (ranolazine, FIG. 13G), “modest inhibition”. For the same molecule, the “potency/efficacy” value in [3] is listed as “suboptimal potency”. In data set [9], the “interactions with other ionic currents” value is reported as “non-selectivity interactions with other ionic currents”.
Take “FHF1A (human fibroblast growth factor homologous factor 1, splice variant A) (from UniProt P61328 1-243)”: the values for the time constant of the excess inactivation (single-exponential decay) in data set [10] and in [11] were 17.8 ms and 12.3 ms, respectively.
For “FHF1B (human) (from UniProt P61328 1-181)”, in [12], the INa,L (Rpersist), multichannel recordings in HEK293 cells was determined as 4 fold; the INa,L, multichannel recordings in HEK293 cells came to 3 fold; the Rpersist against the ratio of FHF1B to FHF2S cDNA (ρ), half-maximal effect (ratio of FHF1B to FHF2S cDNA) was determined as 0.4.
Consider “FixR (FHF-inhibiting-X-region), FHF1A amino-terminal residues 1-39, expressed as a Venus fusion (peptide)”, for which the fold reduction in INa,L (FIG. 5C) in data set [12] was in the range of 10 to 15 fold.

B1: FHF1A amino terminus: entire FHF1A amino terminus expressed as a peptide (peptide)
peptide: MAAAIASSLIRQKRQARESNSDRVSASKRRSSPSKDGRSLCERHVLGVFSKVRFCSGRKRPVRRRP
modifications: left off: large carriers
notes: entire FHF1A amino terminus expressed as a peptide
B1: in data set [1], the “change in INa,L” value is given as “strongly inhibited”.
